# Measurements from patent US20080207488A1, “Method for Detecting Peptides Comprising a Cross-B Structure” (priority 2005, published 2008).
# “Also recorded” adds a separate entry of the source.
# Legend:
# platelets = assay: Platelet aggregation assay; assay type: cell-based, human; conditions: 512-fold diluted plasma spiked with 250 μg/ml BSA-AGE, tenfold diluted
# Experimental: In a next series of experiments, diluted plasma was enriched with a 250 μg/ml BSA-AGE spike and subsequently added to tPA F-biotin-Streptavidin-Sepharose. […] Results are compared to platelet activating properties of the spiked plasma before depletion of BSA-AGE.
# Freshly drawn human aspirin free blood was mixed gently with citrate buffer to avoid coagulation. Blood was spinned for 15′ at 150*g at 20° C. and supernatant was collected; platelet rich plasma (PRP) with an adjusted final platelet number of 200,000 platelets/μl. Platelets were kept at 37° C. for at least 30′, before use in the assays, to ensure that they were in the resting state. For the aggregometric assays, 270 μl platelet solution was added to a glass tube and prewarmed to 37° C. A stirring magnet was added and rotation was set to 900 rpm, and the apparatus (Whole-blood aggregometer, Chrono-log, Havertown, Pa., USA) was blanked. A final volume of 30 μl of tester solution was added, containing the agonist of interest (buffer, control, diluted plasma with BSA-AGE, before and after contacting tPA F-biotin-Streptavidin-Sepharose), prediluted in HEPES-Tyrode buffer pH 7.2. Aggregation was followed in time by measuring the absorbance of the solution, that will decrease in time upon platelet aggregation. […] Aggregation was recorded for 15′ and expressed as the percentage of the transmitted light (0-100%).
# sRAGE = target: T1, sRAGE (Homo sapiens, UniProt Q15109); assay: Biacore surface plasmon resonance, binding to immobilized sRAGE; conditions: Hb-AGE 32, amyloid γ-globulins 62.5, albumin-AGE 3.9 μg ml^−1
# T1 construct: comprises three domains spanning amino-acid residues 23-325; His-tag with thrombin cleavage site (N); made in house; host or cells: 293E cells (printed as '293E hamster embryonic kidney cells')
# Source text: The soluble extracellular part, of the receptor for AGE (sRAGE) was cloned, expressed and purified as follows (Q.-H. Zeng, Prof. P. Gros, Dept. of Crystal- & Structural Chemistry, Bijvoet Center for Biomolecular Research, Utrecht University, Utrecht, the Netherlands). Human cDNA of RAGE was purchased from RZPD (clone IRALp962E1737Q2, RZPD, Berlin, Germany). For PCRs, the gagatct[…] forward primer was used comprising a BglII site, and the gcggccgc[…] reverse primer with a NotI site. The soluble extracellular part of RAGE comprises three domains spanning amino-acid residues 23-325. The PCR product was cloned into a pTT3 vector, containing an amino-terminal His-tag and a thrombin cleavage site. The sRAGE was expressed in 293E hamster embryonic kidney cells at the ABC-protein expression facility (Utrecht University, Utrecht, the Netherlands). […]
# Binding of cross-β structure conformation containing peptides/proteins was studied using surface plasmon resonance technology with a Biacore 2000 apparatus (Biacore AB, Uppsala, Sweden). […] Binding of albumin-AGE was determined with a solution of 3.9 μg ml^−1 albumin-AGE in running buffer. albumin-AGE was filtered on a Millex-GV 0.22 μm filter unit (Millipore). […] Binding of Hb-AGE was also tested after centrifugation for 10 min. at 16,000*g alternative to filtration. tPA activation before and after filtration was assessed with a Plg-activation assay. […]
# [1] = test system: human tissue-type plasminogen activator finger EGF (tPA F-EGF) fragment; assay: ELISA, binding of tPA F-EGF to coated (mis)folded proteins; conditions: coated protein, FIG. 7A, I; listed as BSA-AGE
# Experimental: The plates were blocked using Blocking reagent (Roche 1112589). A dilution series of the protein of interest was applied to the coated proteins and wells were subsequently washed using TBS-T (50 mM Tris pH 7.3, 150 mM NaCl and 0.1% Tween20). Bound protein is detected by the FLAG-tag using 1:3000 anti-FLAG-HRP (Sigma A-8592) in PBS-T, or by 1:1000 Ni-NTA-HRP (Qiagen 34530) in PBS-T. The HRP reaction Is performed using the TMB substrate (Biosource 4501103 or Tebu Bio 101TMB100-500), stopped using 10% H2SO4 and absorbance was measured at 450 nm.
# Chain of human tissue-type plasminogen activator finger EGF (tPA F-EGF) fragment (P00750 39-120 limits assumed): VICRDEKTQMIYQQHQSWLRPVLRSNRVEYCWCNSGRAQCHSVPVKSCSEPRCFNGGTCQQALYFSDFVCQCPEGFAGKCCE
# T1 sequence (Q15109 23-325): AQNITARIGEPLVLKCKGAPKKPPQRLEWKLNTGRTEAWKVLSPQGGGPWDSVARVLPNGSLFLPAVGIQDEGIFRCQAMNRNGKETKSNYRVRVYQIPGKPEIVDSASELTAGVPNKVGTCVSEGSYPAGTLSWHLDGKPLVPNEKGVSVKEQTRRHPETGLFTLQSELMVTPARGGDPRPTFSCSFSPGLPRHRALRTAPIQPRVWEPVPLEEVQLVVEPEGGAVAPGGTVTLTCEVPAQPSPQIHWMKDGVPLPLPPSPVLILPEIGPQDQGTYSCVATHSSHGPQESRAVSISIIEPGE
substance,measurement,setting,value
albumin-AGE: advanced glycation end-product modified bovine serum albumin,platelet aggregation,platelets,Platelets readily aggregate
same,binding to immobilized sRAGE,sRAGE,bind
same,binding of tPA F-EGF,[1],High binding affinities; also recorded: high affinity binding
